Experimental data as given in PubChem BioAssay (NCI).
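Where inhibition never reached the appropriate level, the endpoint shown equals the highest concentration tested. Otherwise, values were interpolated linearly from a five-concentration, 48-hour dose response in 96-well plates. GI50 is the concentration that inhibits growth by half. The concentration for full growth arrest is given as TGI.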

Assays:
Test in all cases: growth of human tumour cells (NCI), 48 h
CAKI-1 renal = test system: CAKI-1 renal
IGROV1 ovarian = test system: IGROV1 ovarian
K-562 leukemia = test system: K-562 leukemia
SK-MEL-2 melanoma = test system: SK-MEL-2 melanoma
SK-MEL-28 melanoma = test system: SK-MEL-28 melanoma
SK-OV-3 ovarian = test system: SK-OV-3 ovarian
SW-620 colon = test system: SW-620 colon
UACC-257 melanoma = test system: UACC-257 melanoma
SF-539 CNS = test system: SF-539 CNS
MDA-MB-231 breast = test system: MDA-MB-231 breast

| SMILES | GI50 (CAKI-1 renal) [µM] | TGI (CAKI-1 renal) [µM] | GI50 (IGROV1 ovarian) [µM] | TGI (IGROV1 ovarian) [µM] | GI50 (K-562 leukemia) [µM] | TGI (K-562 leukemia) [µM] | GI50 (SK-MEL-2 melanoma) [µM] | TGI (SK-MEL-2 melanoma) [µM] | GI50 (SK-MEL-28 melanoma) [µM] | TGI (SK-MEL-28 melanoma) [µM] | GI50 (SK-OV-3 ovarian) [µM] | TGI (SK-OV-3 ovarian) [µM] | GI50 (SW-620 colon) [µM] | TGI (SW-620 colon) [µM] | GI50 (UACC-257 melanoma) [µM] | TGI (UACC-257 melanoma) [µM] | TGI (SF-539 CNS) [µM] | GI50 (MDA-MB-231 breast) [µM] | TGI (MDA-MB-231 breast) [µM] | GI50 (SF-539 CNS) [µM] |
| --- | --- | --- | --- | --- | --- | --- | --- | --- | --- | --- | --- | --- | --- | --- | --- | --- | --- | --- | --- | --- |
| CN(C)C(=O)c1cnc2oc3ccc(O)cc3c2c1-c1ccccc1 | > 25 | > 25 | > 25 | > 25 | > 25 | > 25 | > 25 | > 25 | 5.12 | > 25 | 24.6 | > 25 | > 25 | > 25 | > 25 | > 25 | – | – | – | – |
| O=S(=O)(/C=C/CS(=O)(=O)c1ccccc1)c1ccccc1 | – | – | – | > 100 | – | 98.4 | – | 29.3 | – | > 100 | – | 87 | – | 45.7 | – | 87 | 43.6 | – | – | – |
| CC(=O)O[C@H]1CCC2[C@@H]3CCC4c5nonc5CC[C@]4(C)C3CC[C@@]21C (stereo partly drawn) | – | > 10 | > 100 | > 100 | > 100 | > 100 | > 100 | > 100 | – | > 10 | – | > 10 | > 100 | > 100 | – | > 10 | > 10 | – | – | – |
| C=C1c2ccoc2C[C@H]2[C@H]1CC[C@@]1(O)[C@@](C)(C(=O)OC)CCC[C@]21C | 50.2 | > 100 | 11.2 | 38.4 | – | – | 19 | 42.2 | 54.2 | > 100 | > 100 | > 100 | 29.8 | 85.5 | 35.7 | > 100 | > 100 | 36.6 | > 100 | 69.3 |
| Nc1ccccc1C#C/C=C\C#Cc1cccc(O)c1 | 8.08 | 36.2 | 0.646 | 12.3 | 3.81 | 30.6 | – | – | 8.97 | 31.9 | 3.03 | 19.8 | 3.12 | 15.2 | 10.2 | 23.4 | 11.5 | 2.29 | 14.1 | 2.5 |
| COc1ccc2nc3cc(Cl)ccc3c(SCC(=O)Nc3ccccc3-c3ccccc3NC(=O)CSc3c4ccc(Cl)cc4nc4ccc(OC)cc34)c2c1 | – | > 100 | – | > 100 | – | > 100 | – | > 100 | – | > 100 | – | > 100 | – | > 100 | – | > 100 | > 100 | – | – | – |
| COc1cnc2c(c1)C(=O)c1c-2n(CCCNC2=NCCS2)c(=O)c2cc(Cl)ccc12 | 0.0444 | 1.6 | – | – | – | – | 18.3 | 34.3 | – | – | 0.316 | 1.64 | 0.146 | 2.08 | 1.53 | 3.11 | 1.8 | 1.52 | 3.07 | 0.475 |
| Oc1c(Cl)c(Cl)c(O)c2c1CCCC2 | – | – | – | – | – | – | – | 45.4 | – | 27.7 | – | 27.2 | – | 3.92 | – | 30.5 | 23.5 | – | 41.9 | – |
